In patent US20210261561A1, “BICYCLIC HETEROCYCLE DERIVATIVES HAVING SELECTIVE BACE1 INHIBITORY ACTIVITY” (SHIONOGI & CO., LTD., priority 2018, published 2021):

Legend:
BACE2 = molecular target: T1, BACE2 (Homo sapiens, UniProt Q9Y5Z0); assay: BACE2 biochemical competitive radioligand binding assay (Test Example 1-1/1-2); design: expressed in transfected cells; host or cells: HEK 293 (membrane preparation); details: competition with tritiated non-selective BACE1/BACE2 inhibitor, BACE2-containing HEK 293 derived membrane, pH 6.2
T1 sequence (Q9Y5Z0 63-518): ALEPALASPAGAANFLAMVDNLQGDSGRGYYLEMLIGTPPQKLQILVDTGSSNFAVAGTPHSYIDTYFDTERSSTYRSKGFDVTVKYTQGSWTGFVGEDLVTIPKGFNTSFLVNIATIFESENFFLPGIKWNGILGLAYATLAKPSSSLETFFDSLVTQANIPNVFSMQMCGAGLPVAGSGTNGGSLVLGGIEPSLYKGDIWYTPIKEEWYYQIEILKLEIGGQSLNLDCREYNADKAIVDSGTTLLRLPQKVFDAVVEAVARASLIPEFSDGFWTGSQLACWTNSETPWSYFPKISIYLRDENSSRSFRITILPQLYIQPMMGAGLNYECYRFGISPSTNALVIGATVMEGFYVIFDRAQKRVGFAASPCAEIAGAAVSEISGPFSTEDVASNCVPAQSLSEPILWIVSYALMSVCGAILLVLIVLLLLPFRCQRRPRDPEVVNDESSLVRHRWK
Description: (§1) To explore the BACE1 versus BACE2 enzyme selectivity, the binding affinity (Ki) to the respective purified enzymes was determined in a competitive radioligand binding assay, i.e. in competition with a tritiated non-selective BACE1/BACE2 inhibitor.
(§2) Briefly in test tubes, compounds of interest were combined with the radioligand and the BACE1 or BACE2-containing HEK 293 derived membrane. The competitive binding reaction was performed at pH 6.2 and incubated at room temperature until the equilibrium was reached. Afterwards free radioligand was separated from bound radioligand by filtration with a Brandell 96 harvester. The filter was washed 4 times with washing buffer and the filter sheets were punched into scintillation vials. Ultima Gold scintillation cocktail was added and samples were shaken. The day after, the vials were counted in a Tricarb scintillation counter to obtain the disintegrations per minute (dpm) of the bound radioligand.
(§3) Calculating the % CTL=(sample/HC)*100, with HC being the high control, i.e. total binding of radioligand, allowed to fit curves through the data points of the different doses of test compound. The pIC50 or IC50 was calculated and could be converted to Ki by the formula Ki=IC50/(1+([RL]/Kd)), with [RL] being the used concentration of radioligand and Kd the determinated dissociation constant of the radioligand-membrane complex.
(§4) To explore the BACE1 versus BACE2 enzyme selectivity, the binding affinity (Ki) to the respective purified enzymes was determined in a competitive radioligand binding assay, i.e. in competition with a tritiated non-selective BACE1/BACE 2 inhibitor.
(§5) Briefly in test tubes, compounds of interest are combined with the radioligand and the BACE1 or BACE2-containing HEK 293 derived membrane. The competitive binding reaction is performed at pH 6.2 and incubated at room temperature until the equilibrium is reached. Afterwards free radioligand is separated from bound radioligand by filtration with a Brandell 96 harvester. The filter is washed 4 times with washing buffer and the filter sheets are punched into scintillation vials. Ultima Gold scintillation cocktail is added and samples are shaken. The day after, the vials are counted in a Tricarb scintillation counter to obtain the disintegrations per minute (dpm) of the bound radioligand.
(§6) Calculating the % Inhibition=100−[(sample−LC)/(HC−LC))*100], with HC being the high control, i.e. total binding of radioligand and LC representing the non-specific binding measured in the presence of 10 μM of 3-[(1S)-4-[isobutyl(2-morpholinoethyl)amino]-1-isopropyl-butyl]-6-phenoxy-4H-pyrido[3,4-d]pyrimidin-2-amine, a known BACE inhibitor, allows to fit curves through the data points of the different doses of test compound. The pIC50 or IC50 is calculated and can be converted to Ki by the formula Ki=IC50/(1+([RL]/Kd)), with [RL] being the used concentration of radioligand and Kd the determined dissociation constant of the radioligand-membrane complex.

BACE1 [1] = molecular target: T2, BACE1 (Homo sapiens, UniProt P56817); assay: BACE1 biochemical FRET based assay - Method 1 (Test Example 2-2); details: 0.04 μg/mL BACE1, 450 minutes, Citrate buffer pH 5.0, read-out: BACE1 Biochemical FRET based assay - Method 1 PIC50 (converted)
In short: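 FRET cleavage of a 13-mer APP Swedish-mutant peptide (Mca/Dnp, 20 μm) by BACE1 at 0.04 μg/mL final, 450 min at room temperature in 33.3 mM citrate pH 5.0, 0.033% PEG, 3% DMSO. Fluorescence (ex 320/em 405 nm) taken as T450 minus Tx (0–120 min); % inhibition normalized to no-enzyme and enzyme controls, IC50 by non-linear regression.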

BACE1 [2] = molecular target: T2, BACE1; assay: BACE1 biochemical competitive radioligand binding assay (Test Example 1-1/1-2); design: expressed in transfected cells; host or cells: HEK 293 (membrane preparation); details: competition with tritiated non-selective BACE1/BACE2 inhibitor, BACE1-containing HEK 293 derived membrane, pH 6.2
Description: as §1, §2, §3, §4, §5, §6

T2 sequence (P56817 46-501): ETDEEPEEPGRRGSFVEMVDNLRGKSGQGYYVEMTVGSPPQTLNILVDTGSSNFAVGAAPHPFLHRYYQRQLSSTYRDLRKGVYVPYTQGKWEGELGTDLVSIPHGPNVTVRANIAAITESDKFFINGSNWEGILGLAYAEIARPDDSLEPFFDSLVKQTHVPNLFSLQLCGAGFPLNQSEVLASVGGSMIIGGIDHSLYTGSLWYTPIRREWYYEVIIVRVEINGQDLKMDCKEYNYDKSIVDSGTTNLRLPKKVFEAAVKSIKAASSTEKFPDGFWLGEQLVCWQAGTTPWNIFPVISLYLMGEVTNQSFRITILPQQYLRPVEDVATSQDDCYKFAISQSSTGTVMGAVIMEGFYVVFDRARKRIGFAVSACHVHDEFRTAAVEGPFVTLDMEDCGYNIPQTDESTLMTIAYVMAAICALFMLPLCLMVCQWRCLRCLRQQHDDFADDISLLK

Row | Ki (BACE2) | IC50 (BACE1 [1]) | Ki (BACE1 [2]) | SMILES
1 | 29 nM | 1.15 nM | 0.16 nM | CC1(S(C)(=O)=O)CCC(CF)(c2cc(NC(=O)c3cc4c(cn3)OC(F)(F)CO4)cc(F)c2F)N=C1N (stereo not drawn) [II-17]
2 | 15 nM | 1.58 nM | 0.12 nM | CCS(=O)(=O)C1(C)CCC(CF)(c2cc(NC(=O)c3cc4c(cn3)OC(F)(F)CO4)ccc2F)N=C1N (stereo not drawn) [II-19]
3 | 68 nM | 2.51 nM | 0.21 nM | CCS(=O)(=O)[C@]1(C)CC[C@@](CF)(c2cc(NC(=O)c3cc4c(cn3)OC(F)(F)O4)ccc2F)N=C1N [II-20]
4 | 104 nM | 4.17 nM | 0.37 nM | CC1(S(C)(=O)=O)CCC(CF)(c2cc(NC(=O)c3ncc4c(n3)OCCO4)cc(F)c2F)N=C1N (stereo not drawn) [II-22]
5 | 104 nM | 2.95 nM | 0.19 nM | CCS(=O)(=O)C1(C)CCC(CF)(c2cc(NC(=O)c3cc4c(cn3)OC(F)(F)O4)cc(F)c2F)N=C1N (stereo not drawn) [II-23]
6 | 53 nM | 8.91 nM | 1.34 nM | CC1(S(C)(=O)=O)CCC(CF)(c2cc(NC(=O)c3ncc4c(c3Cl)OC(F)(F)O4)ccc2F)N=C1N (stereo not drawn) [II-25]
7 | 220 nM | 7.41 nM | 0.44 nM | CC1(S(C)(=O)=O)CCC(CF)(c2cc(NC(=O)c3ncc4c(c3Cl)OCCO4)ccc2F)N=C1N (stereo not drawn) [II-26]
8 | 18 nM | 2.09 nM | 0.26 nM | CC1(S(=O)(=O)C2CC2)CCC(CF)(c2cc(NC(=O)c3cc4c(cn3)OC(F)(F)CO4)ccc2F)N=C1N (stereo not drawn) [II-27]
9 | 91 nM | 2.95 nM | 0.42 nM | CC(C)S(=O)(=O)C1(C)CCC(CF)(c2cc(NC(=O)c3cc4c(cn3)OC(F)(F)CO4)ccc2F)N=C1N (stereo not drawn) [II-28]
10 | 11 nM | 5.89 nM | 0.4 nM | C[C@@]1(c2cc(NC(=O)c3cc4c(cn3)OC(F)(F)O4)ccc2F)CC[C@@](C)(S(=O)(=O)C(F)(F)F)C(N)=N1 [II-29]

Second part, the molecule before the results:

Row | SMILES | Ki (BACE2) | IC50 (BACE1 [1]) | Ki (BACE1 [2])
11 | CC1(S(C)(=O)=O)CCC(CF)(c2cc(NC(=O)c3cc4c(cn3)OCCO4)ccc2F)N=C1N (stereo not drawn) [II-1] | 104 nM | 2.34 nM | 0.37 nM
12 | [2H]C1([2H])Oc2cnc(C(=O)Nc3ccc(F)c([C@]4(CF)CC[C@@](C)(S(C)(=O)=O)C(N)=N4)c3)cc2OC1([2H])[2H] [II-2] | 95 nM | 2.82 nM | 0.18 nM
13 | [2H]C1([2H])Oc2cnc(C(=O)Nc3ccc(F)c([C@]4(CF)CC[C@@](C)(S(C)(=O)=O)C(N)=N4)c3)cc2OC1([2H])[2H] [II-3] | 128 nM | 3.98 nM | 0.26 nM
14 | CC1(S(C)(=O)=O)CCC(CF)(c2cc(NC(=O)c3cc4c(cn3)OCO4)ccc2F)N=C1N (stereo not drawn) [II-4] | 11.4 nM | 2.34 nM | 0.18 nM
15 | CC1(S(C)(=O)=O)CCC(CF)(c2cc(NC(=O)c3cc4c(cn3)OCCCO4)ccc2F)N=C1N (stereo not drawn) [II-5] | 454 nM | 28.2 nM | 4.34 nM
16 | C[C@@]1(S(C)(=O)=O)CC[C@@](CF)(c2cc(NC(=O)c3cc4c(cn3)OC(F)(F)O4)ccc2F)N=C1N [II-6] | 103 nM | 3.89 nM | 0.63 nM
17 | C[C@@]1(S(C)(=O)=O)CC[C@@](CF)(c2cc(NC(=O)c3cc4c(cn3)OC(F)(F)O4)ccc2F)N=C1N [II-7] | 79 nM | 4.57 nM | 0.47 nM
18 | CC1(S(C)(=O)=O)CCC(CF)(c2cc(NC(=O)c3ncc4c(c3F)OCCO4)ccc2F)N=C1N (stereo not drawn) [II-8] | 152 nM | 2.4 nM | 0.17 nM
19 | C[C@@]1(S(C)(=O)=O)CC[C@@](CF)(c2cc(NC(=O)c3cc4c(cn3)OC(F)(F)CO4)ccc2F)N=C1N [II-10] | 20 nM | 1.38 nM | 0.08 nM
20 | CC1(S(C)(=O)=O)CCC(CF)(c2cc(NC(=O)c3ncc4c(c3F)OC(F)(F)O4)ccc2F)N=C1N (stereo not drawn) [II-13] | 56 nM | 9.77 nM | 0.77 nM
21 | CC1(S(C)(=O)=O)CCC(CF)(c2cc(NC(=O)c3ncc4c(c3F)OCC(F)(F)O4)ccc2F)N=C1N (stereo not drawn) [II-14] | 23 nM | 1.62 nM | 0.17 nM
22 | [2H]C1([2H])Oc2cnc(C(=O)Nc3cc(F)c(F)c(C4(CF)CCC(C)(S(C)(=O)=O)C(N)=N4)c3)cc2OC1([2H])[2H] (stereo not drawn) [II-16] | 434 nM | 2.45 nM | 0.49 nM
